Literature values as cited in patent EP4101443A1, “HOT-MELT COATED PARTICLES WITH PH-DEPENDENT RELEASE” (HERMES PHARMA GmbH, priority 2021, dated 2022).
Converted amounts (≈) assume the structure as drawn.

SMILES | solubility [g/L]
CC(=O)N[C@@H](CS)C(=O)O [NAC, N-acetylcysteine] | 200 (≈ 1230 mM)
CC(=O)Oc1ccccc1C(=O)O [ASA, acetylsalicylic acid] | 2.24 (≈ 12.4 mM)
